Columns and labels:
[1] = target: Gonadotropin-releasing hormone receptor (Macaca mulatta); assay: […] inhibition of monkey Gonadotropin releasing hormone receptor
[2] = target: Gonadotropin-releasing hormone receptor (Macaca mulatta); assay: […] inhibition of monkey Gonadotropin-releasing hormone receptor

Compound	Ki [1] [nM]	Ki [2] [nM]
COc1cccc(-c2c(C)n(Cc3c(F)cccc3F)c(=O)n(C[C@@H](C)NCc3nccs3)c2=O)c1F [1-(2,6-Difluoro-benzyl)-5-(2-fluoro-3-methoxy-phenyl)-6-methyl-3-{(R)-2-[(thiazol-2-ylmethyl)-amino]-propyl}-1H-pyrimidine-2,4-dione]	820	–
COc1cccc(-c2c(C)n(Cc3c(F)cccc3F)c(=O)n(C[C@H](C)NCc3sccc3C)c2=O)c1F [1-(2,6-Difluoro-benzyl)-5-(2-fluoro-3-methoxy-phenyl)-6-methyl-3-{(S)-2-[(3-methyl-thiophen-2-ylmethyl)-amino]-propyl}-1H-pyrimidine-2,4-dione]	–	87
COc1cccc(-c2c(C)n(Cc3c(F)cccc3F)c(=O)n(C[C@H](C)NCc3ccccc3)c2=O)c1F [3-((S)-2-Benzylamino-propyl)-1-(2,6-difluoro-benzyl)-5-(2-fluoro-3-methoxy-phenyl)-6-methyl-1H-pyrimidine-2,4-dione]	–	550
